According to ChEMBL document CHEMBL1201862, “PubChem BioAssay data set” (2004):
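How tested: cells in 96-well plates exposed to compound for 48 hours at five concentrations. Abbreviation: GI50, concentration required for 50% inhibition of growth.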 The source made the active and inactive calls. No stated cut-off is given here; in the data, active = GI50 up to about 1.1 µM and inactive = higher.

Key:
Experiment in all cases: DTP human tumour cell line panel, 48 h
786-0 = test system: 786-0
A549 = test system: A549
ACHN = test system: ACHN
BT-549 = test system: BT-549
CAKI-1 = test system: CAKI-1
CCRF-CEM = test system: CCRF-CEM
COLO 205 = test system: COLO 205
DU-145 = test system: DU-145
EKVX = test system: EKVX
HCC 2998 = test system: HCC 2998
HCT-116 = test system: HCT-116
HCT-15 = test system: HCT-15
HL-60 = test system: HL-60
HOP-62 = test system: HOP-62
HOP-92 = test system: HOP-92
HT-29 = test system: HT-29
Hs-578T = test system: Hs-578T
IGROV-1 = test system: IGROV-1
K562 = test system: K562
KM12 = test system: KM12
LOX IMVI = test system: LOX IMVI
M14 = test system: M14
MCF7 = test system: MCF7
MDA-MB-231 = test system: MDA-MB-231
MDA-MB-435 = test system: MDA-MB-435
MDA-N = test system: MDA-N
MOLT-4 = test system: MOLT-4
NCI-H460 = test system: NCI-H460
NCI/ADR-RES = test system: NCI/ADR-RES
OVCAR-3 = test system: OVCAR-3
OVCAR-4 = test system: OVCAR-4
OVCAR-5 = test system: OVCAR-5
OVCAR-8 = test system: OVCAR-8
PC-3 = test system: PC-3
RPMI-8226 = test system: RPMI-8226
RXF 393 = test system: RXF 393
SF-268 = test system: SF-268
SF-295 = test system: SF-295
SF-539 = test system: SF-539
SK-MEL-28 = test system: SK-MEL-28
SK-MEL-2 = test system: SK-MEL-2
SK-MEL-5 = test system: SK-MEL-5
SK-OV-3 = test system: SK-OV-3
SN12C = test system: SN12C
SNB-19 = test system: SNB-19
SNB-75 = test system: SNB-75
SR = test system: SR
SW-620 = test system: SW-620
T47D = test system: T47D
TK-10 = test system: TK-10
U-251 = test system: U-251
UACC-257 = test system: UACC-257
UACC-62 = test system: UACC-62
UO-31 = test system: UO-31

COc1cc(/C=C2\N=C(c3ccccc3)N(c3nc4cc(C)c(C)cc4s3)C2=O)cc(OC)c1OC
GI50 (786-0): 27.6 µM (inactive) | GI50 (A549): 30.1 µM (inactive) | GI50 (ACHN): 27 µM (inactive) | GI50 (BT-549): 26.8 µM (inactive) | GI50 (CAKI-1): 35.1 µM (inactive) | GI50 (CCRF-CEM): 7.41 µM (inactive) | GI50 (COLO 205): 27.5 µM (inactive) | GI50 (DU-145): 45.4 µM (inactive) | GI50 (EKVX): 17.5 µM (inactive) | GI50 (HCC 2998): 20.9 µM (inactive) | GI50 (HCT-116): 20.2 µM (inactive) | GI50 (HCT-15): 30.3 µM | GI50 (HL-60): 17.8 µM (inactive) | GI50 (HOP-62): 19.9 µM (inactive) | GI50 (HOP-92): 13 µM (inactive) | GI50 (HT-29): 19 µM (inactive) | GI50 (Hs-578T): 16.6 µM (inactive) | GI50 (IGROV-1): 15.9 µM (inactive) | GI50 (K562): 35.4 µM (inactive) | GI50 (KM12): 21.8 µM (inactive) | GI50 (LOX IMVI): 22.4 µM (inactive) | GI50 (M14): 33.3 µM (inactive) | GI50 (MCF7): 18.5 µM (inactive) | GI50 (MDA-MB-231): 43.6 µM (inactive) | GI50 (MDA-MB-435): 12.9 µM (inactive) | GI50 (MDA-N): 16.1 µM (inactive) | GI50 (MOLT-4): 3.31 µM (inactive) | GI50 (NCI-H460): 29.2 µM (inactive) | GI50 (NCI/ADR-RES): 28.1 µM (inactive) | GI50 (OVCAR-3): 20 µM (inactive) | GI50 (OVCAR-4): 21.3 µM (inactive) | GI50 (OVCAR-5): 27.2 µM (inactive) | GI50 (OVCAR-8): 19.8 µM (inactive) | GI50 (PC-3): 23.9 µM (inactive) | GI50 (RPMI-8226): 19.3 µM (inactive) | GI50 (RXF 393): 19.3 µM (inactive) | GI50 (SF-268): 23 µM (inactive) | GI50 (SF-295): 27.9 µM (inactive) | GI50 (SF-539): 21.7 µM (inactive) | GI50 (SK-MEL-28): 62.2 µM (inactive) | GI50 (SK-MEL-2): 32 µM (inactive) | GI50 (SK-MEL-5): 21.2 µM (inactive) | GI50 (SK-OV-3): 27.7 µM (inactive) | GI50 (SN12C): 34.8 µM (inactive) | GI50 (SNB-19): 36 µM (inactive) | GI50 (SNB-75): 18.5 µM (inactive) | GI50 (SR): 18.4 µM (inactive) | GI50 (SW-620): 29.4 µM (inactive) | GI50 (T47D): 40.9 µM (inactive) | GI50 (TK-10): 60 µM (inactive) | GI50 (U-251): 21.8 µM (inactive) | GI50 (UACC-257): 28.9 µM (inactive) | GI50 (UACC-62): 33.3 µM (inactive) | GI50 (UO-31): 24.7 µM (inactive)
